Test results published in patent US20250250265A1, “BENZOTHIAZOLE-PHENYLSULFONYL-PIPERIDINE ANALOGS AS ACTIVATORS OF NACYLPHOSPHATIDYLETHANOLAMINE HYDROLYZING PHOSPHOLIPASE D” (priority 2022, published 2025).
Entries after “also recorded” stand apart in the source; their conditions may differ.

How the values were obtained:
[1] = target: T1, recombinant human NAPE-PLD (Homo sapiens, UniProt Q6IQ20); assay: Concentration response with recombinant human NAPE-PLD, PED-A1 as substrate; assay type: biochemical; conditions: for effect on activity of recombinant human NAPE-PLD: graded concentrations (FIG. 18A)
T1 construct: The expression plasmid including the full-length human NAPEPLD gene with a C-terminal hexahistidine tag; hexahistidine (His6) (C)
Source text: FIG. 18A-B show VU534 and VU533 activate human NAPE-PLD. […] Mean±SEM, n=3. Non-linear regression with variable slope (four parameter) was used to calculate EC50 and Emax.
Initial stocks of potential NAPE-PLD modulator compounds were purchased from Life Chemicals and provided by the Vanderbilt HTS screening facility. Additional compounds were synthesized by the Vanderbilt Chemical Synthesis core. LEI-401, [^2H4]PEA and [^2H4]OEA were purchased from Cayman Chemicals. N-palmitoyl-PE, 1,2-dioleoyl-PE and 1,2-dihexanoyl-PE were purchased from Avanti Polar Lipids. PED-A1 was purchased from Invitrogen. Flame-NAPE was synthesized as previously described. See Zarrow et al., J. Lipid Res. 63(1): 100156 (2022). [^2H4]N-palmitoyl-PE was synthesized using [^2H4] palmitic acid (Cambridge Isotope Laboratories) and 1,2-dioleoyl-PE and N-oleoyl-PE was synthesized using 1,2-dihexanoyl-PE and oleoyl chloride (Millipore Sigma). Recombinant mouse NAPE-PLD with a C-terminal hexahistidine tag was expressed in E. coli and purified using cobalt affinity beads as previously described. See Aggarwal et al., J. Biol. Chem. 295(21): 7289-7300 (2020). The expression plasmid including the full-length human NAPEPLD gene with a C-terminal hexahistidine tag inserted in a pET plasmid was purchased from VectorBuilder, and the protein expressed and purified in an identical manner to recombinant mouse NAPE-PLD. The sEH inhibitors TPPU (N-[1-(1-Oxopropyl)-4-piperidinyl]-N′-[4-(trifluoromethoxy)phenyl]urea) and AUDA (12-[[(tricyclo[3.3.1.13,7]dec-1-ylamino)carbonyl]amino]-dodecanoic acid) were purchased from Cayman Chemical and Sigma Chemicals, respectively.
In vitro fluorescence NAPE-PLD activity assays using recombinant NAPE-PLD and either PED-A1 or flame-NAPE as fluorogenic substrate were performed as previously described except with small modifications as noted below. See Aggarwal et al., J. Biol. Chem. 295(21): 7289-7300 (2020); Zarrow et al., J. Lipid Res. 63(1): 100156 (2022).
Concentration response curve (CRC) experiments used the same assay conditions as the HTS assay, except that graded concentrations of each test compound were used, with total amount of vehicle (DMSO) kept constant. CRC experiments with purified recombinant mouse NAPE-PLD were performed on two separate days, with values from each day normalized to vehicle only controls on same plate, and then all normalized values from both days averaged together. CRC experiments with human NAPE-PLD represent value from only a single day, due to limited amounts of this recombinant enzyme.

[2] = system: bone marrow-derived macrophages (BMDM); assay: Efferocytosis assay with bone marrow-derived macrophages and apoptotic Jurkat cells; assay type: cell-based, mouse; conditions: 10 μM; for effect on efferocytosis by wild-type BMDM: 6 h before assay
Experimental: Male C57BL6/j wild-type or Napepld^−/− mice were euthanized with isoflurane and hind legs were removed. Marrow was flushed from femurs and tibias using DMEM containing 4.5 g/L glucose and a 26-gauge needle. Cell suspensions were passed over a 40-μm filter, centrifuged at 500×g, and resuspended in 50 ml of DMEM containing 4.5 g/L glucose, 20% L-cell conditioned media, 10% heat-inactivated FBS, and 1% penicillin/streptomycin. 10 ml of cell suspension was plated into each of five 100-mm dishes and incubated for four days at 37° C. and 5% CO2. On day four, non-adherent cells and debris were aspirated from the plates and replaced with fresh media. After 7 days of differentiation, cells were harvested for use in experiments.
Assays were performed according to previously described protocols. See e.g., Doran et al. J. Clin. Invest. 127(11): 4075-4089 (2017); Proto et al., Immunity 49(4): 666-677 (2018). Bone marrow-derived macrophages were seeded at 0.25×10^6 cells/well in a non-tissue culture-treated 24-well plate and allowed to adhere overnight. Macrophages were treated with various compounds at a final concentration of 10 μM or DMSO as a vehicle for 6 hours prior to each experiment. Jurkat cells were exposed to UV light (254 nm) for 5 minutes to induce apoptosis and then incubated in a 37° C. incubator with 5% CO2 for 2 hours. Surveillance staining of these cells routinely yielded approximately 80-90% apoptosis (Annexin V+) using this method. Apoptotic Jurkat cells were labeled with either CellVue Claret (Millipore Sigma) or Cell Trace Violet (Invitrogen) per the manufacturer's instructions. After staining, cells were resuspended in macrophage medium at a density of […] and 500 μL of this suspension was added to the drug-containing media on the macrophages to achieve a cell ratio of 3:1 Jurkats: macrophages. After incubating for 45 minutes at 37° C. and 5% CO2, the medium was aspirated, and the macrophages were gently washed twice with PBS to remove unbound apoptotic cells. Macrophages were then removed from the plate using Cell Stripper (Sigma), washed, resuspended in staining buffer consisting of 2% FBS in PBS with 2 mM EDTA, and blocked with anti-mouse CD16/32 antibodies for 15 minutes on ice. After blocking, cells were pelleted and resuspended with F4/80. Cells were incubated for 45 minutes on ice in the dark, then washed and resuspended in staining buffer for analysis. Cells were analyzed using an Attune NxT cytometer (Thermo Fisher) and data were analyzed using FlowJo software to quantify the proportion of F4/80^+ macrophages that co-stained for apoptotic cells (% efferocytosis).

T1 sequence (Q6IQ20 whole entry): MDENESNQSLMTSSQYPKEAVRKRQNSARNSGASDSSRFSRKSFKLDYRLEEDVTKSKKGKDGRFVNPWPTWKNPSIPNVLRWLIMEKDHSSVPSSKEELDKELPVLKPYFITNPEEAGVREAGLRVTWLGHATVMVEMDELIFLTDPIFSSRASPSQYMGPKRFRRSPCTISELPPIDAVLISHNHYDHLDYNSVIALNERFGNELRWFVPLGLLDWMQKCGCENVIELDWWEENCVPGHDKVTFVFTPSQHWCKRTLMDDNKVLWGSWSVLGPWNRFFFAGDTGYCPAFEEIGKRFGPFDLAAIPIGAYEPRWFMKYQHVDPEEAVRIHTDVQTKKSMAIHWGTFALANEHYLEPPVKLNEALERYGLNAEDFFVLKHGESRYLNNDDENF

Row | EC50, recombinant human NAPE-PLD ([1]; FIG. 18A, PED-A1) | SMILES | effect on activity of recombinant human NAPE-PLD [1] | effect on efferocytosis by wild-type BMDM [2] | Emax, recombinant human NAPE-PLD ([1]; FIG. 18A, PED-A1) | effect on efferocytosis by Napepld−/− (KO) BMDM ([2]; 6 h, KO BMDM (FIG. 21C)) | effect on efferocytosis by WT BMDM in WT versus KO experiment ([2]; 6 h, WT BMDM (FIG. 21C))
1 | not calculable | O=C(Nc1nc2ccccc2s1)C1CCN(S(=O)(=O)c2ccc(F)c(Cl)c2)CC1 [VU233] | no significant effect | modestly reduced efferocytosis |  |  | 
2 |  | Cc1cc(C)c2sc(NC(=O)C3CCN(S(=O)(=O)c4ccc(F)cc4)CC3)nc2c1 [VU534, N-(5,7-Dimethylbenzo[d]thiazol-2-yl)-1-((4-fluorophenyl)sulfonyl)piperidine-4-carboxamide] | concentration-dependent increases | increases efferocytosis capacity; also recorded: significantly enhanced efferocytosis | 1.8 fold | had no effect | significantly increased efferocytosis
3 |  | Cc1ccc(C)c2sc(NC(=O)C3CCN(S(=O)(=O)c4ccc(F)cc4)CC3)nc12 [VU533] | concentration-dependent increases | significantly enhanced efferocytosis | 1.9 fold |  | 
